Earlier results as cited in US9386793B2, “Compositions and methods for treating obesity and related disorders by characterizing and restoring mammalian bacterial microbiota” (New York University, priority 2010, dated 2016).

What was measured:
[1] = tested on: Clostridium cocleatum; set-up: key: + facilitates growth; w weak growth promotion; +/− growth variable dependent on strain; − no growth effect; conditions: substrate for fermentation
[2] = tested on: Oscillibacter; set-up: key: + facilitates growth; w weak growth promotion; +/− growth variable dependent on strain; − no growth effect; conditions: substrate for fermentation
[3] = tested on: Johnsonella; set-up: key: + facilitates growth; w weak growth promotion; +/− growth variable dependent on strain; − no growth effect; conditions: substrate for fermentation
[4] = tested on: Sporacetegenium; set-up: key: + facilitates growth; w weak growth promotion; +/− growth variable dependent on strain; − no growth effect; conditions: substrate for fermentation
[5] = tested on: Coprobacillus; set-up: key: + facilitates growth; w weak growth promotion; +/− growth variable dependent on strain; − no growth effect; conditions: substrate for fermentation
[6] = tested on: Holdemania; set-up: key: + facilitates growth; w weak growth promotion; +/− growth variable dependent on strain; − no growth effect; conditions: substrate for fermentation
[7] = tested on: Coprobacillus, Sporacetigenium, Holdemania, or Clostridium cocleatum; conditions: but not of Johnsonella and Oscillibacter

For Inulin, the “growth of Clostridium cocleatum” value [1] is listed as “+”.
In the case of `O=C[C@H](O)[C@@H](O)[C@@H](O)CO` [L-arabinose], the “growth of Oscillibacter” value [2] is listed as “+”.
In the case of `O=C[C@H](O)[C@H](O)[C@H](O)CO` [Ribose], the “growth of Johnsonella” value [3] is given as “−”, the “growth of Clostridium cocleatum” value [1] is given as “−” and the “growth of Sporacetegenium” value [4] is given as “+/−”. The “growth of Oscillibacter” value [2] was “+”, the “growth of Coprobacillus” value [5] was “−” and the “growth of Holdemania” value [6] was “w”.
For `O=C(CO)[C@@H](O)[C@H](O)[C@H](O)CO` [Fructose], the “growth of Johnsonella” value [3] is listed as “−”, the “growth of Clostridium cocleatum” value [1] is listed as “+” and the “growth of Sporacetegenium” value [4] is listed as “+”. The “growth of Oscillibacter” value [2] was “−”, the “growth of Coprobacillus” value [5] was “+” and the “growth and metabolic activity of genera (as follows from Table 1)” value (“growth and metabolic activity of genera” for short) [7] was “stimulate growth and metabolic activity of two or more genera”. The “growth of Holdemania” value [6] was “+”.
In the case of `O=C[C@@H](O)[C@H](O)[C@H](O)CO` [Arabinose], the “growth of Johnsonella” value [3] is listed as “−”, the “growth of Clostridium cocleatum” value [1] is listed as “−” and the “growth of Sporacetegenium” value [4] is listed as “+”. For the same molecule, the “growth of Oscillibacter” value [2] was “+/−^a”, the “growth of Coprobacillus” value [5] was “−” and the “growth of Holdemania” value [6] was “w”.
For `OC[C@H]1O[C@H](OCC2O[C@@H](O)[C@H](O)[C@@H](O)[C@@H]2O)[C@H](O)[C@@H](O)[C@H]1O` (stereo partly shown) [Mellibiose], the “growth of Johnsonella” value [3] is listed as “−”, the “growth of Clostridium cocleatum” value [1] is listed as “+” and the “growth of Sporacetegenium” value [4] is listed as “w”. For the same molecule, the “growth of Oscillibacter” value [2] was “−”, the “growth and metabolic activity of genera” value [7] was “stimulate growth and metabolic activity of two or more genera” and the “growth of Holdemania” value [6] was “w”.
In the case of `OC[C@H]1O[C@@H](O[C@H]2[C@H](O)[C@@H](O)C(O)O[C@@H]2CO)[C@H](O)[C@@H](O)[C@H]1O` (stereo partly shown) [Lactose], the “growth of Johnsonella” value [3] is listed as “−”, the “growth of Clostridium cocleatum” value [1] is listed as “+” and the “growth of Sporacetegenium” value [4] is listed as “w”. The “growth of Oscillibacter” value [2] was “−”, the “growth of Coprobacillus” value [5] was “+” and the “growth and metabolic activity of genera” value [7] was “stimulate growth and metabolic activity of two or more genera”. For the same molecule, the “growth of Holdemania” value [6] was “+”.
In the case of `O=C[C@H](O)[C@@H](O)[C@H](O[C@@H]1O[C@H](CO)[C@@H](O)[C@H](O)[C@H]1O)[C@H](O)CO` [Cellobiose], the “growth of Johnsonella” value [3] is listed as “−”, the “growth of Clostridium cocleatum” value [1] is listed as “+” and the “growth of Sporacetegenium” value [4] is listed as “w”. The “growth of Oscillibacter” value [2] was “−”, the “growth of Coprobacillus” value [5] was “+” and the “growth and metabolic activity of genera” value [7] was “stimulate growth and metabolic activity of two or more genera”. For the same molecule, the “growth of Holdemania” value [6] was “w”.
In the case of `C[C@H](O)[C@H](O)[C@@H](O)[C@@H](O)C=O` [Rhamnose], the “growth of Johnsonella” value [3] is listed as “−”, the “growth of Clostridium cocleatum” value [1] is listed as “−” and the “growth of Sporacetegenium” value [4] is listed as “w”. For the same molecule, the “growth of Oscillibacter” value [2] was “−”, the “growth of Coprobacillus” value [5] was “−” and the “growth of Holdemania” value [6] was “w”.
For `OC[C@H]1O[C@H](OC[C@H]2O[C@H](O[C@]3(CO)O[C@H](CO)[C@@H](O)[C@@H]3O)[C@H](O)[C@@H](O)[C@@H]2O)[C@H](O)[C@@H](O)[C@H]1O` [Raffinose], the “growth of Johnsonella” value [3] is given as “−”, the “growth of Clostridium cocleatum” value [1] is given as “+” and the “growth of Sporacetegenium” value [4] is given as “w”. For the same molecule, the “growth of Oscillibacter” value [2] was “−”, the “growth of Coprobacillus” value [5] was “−” and the “growth and metabolic activity of genera” value [7] was “stimulate growth and metabolic activity of two or more genera”. For the same molecule, the “growth of Holdemania” value [6] was “w”.
In the case of `O=C[C@H](O)[C@@H](O)[C@@H](O)[C@H](O)CO` [Galactose], the “growth of Clostridium cocleatum” value [1] is given as “+”, the “growth of Sporacetegenium” value [4] is given as “w” and the “growth of Oscillibacter” value [2] is given as “−”. For the same molecule, the “growth of Coprobacillus” value [5] was “+” and the “growth and metabolic activity of genera” value [7] was “stimulate growth and metabolic activity of two or more genera”.
For `OCc1ccccc1O[C@@H]1O[C@H](CO)[C@@H](O)[C@H](O)[C@H]1O` [Salicin], the “growth of Johnsonella” value [3] is listed as “−”, the “growth of Clostridium cocleatum” value [1] is listed as “w” and the “growth of Sporacetegenium” value [4] is listed as “−”. For the same molecule, the “growth of Oscillibacter” value [2] was “−”, the “growth of Coprobacillus” value [5] was “+” and the “growth and metabolic activity of genera” value [7] was “stimulate growth and metabolic activity of two or more genera”. The “growth of Holdemania” value [6] was “+”.
For `OC[C@H]1O[C@H](O[C@H]2O[C@H](CO)[C@@H](O)[C@H](O)[C@H]2O)[C@H](O)[C@@H](O)[C@@H]1O` [Trehalose], the “growth of Johnsonella” value [3] is listed as “−”, the “growth of Clostridium cocleatum” value [1] is listed as “−” and the “growth of Sporacetegenium” value [4] is listed as “w”. For the same molecule, the “growth of Oscillibacter” value [2] was “−”, the “growth of Coprobacillus” value [5] was “+” and the “growth and metabolic activity of genera” value [7] was “stimulate growth and metabolic activity of two or more genera”. The “growth of Holdemania” value [6] was “w”.
In the case of `O=c1ccc2cc(O[C@@H]3O[C@H](CO)[C@@H](O)[C@H](O)[C@H]3O)c(O)cc2o1` [Esculin], the “growth of Johnsonella” value [3] is given as “−”, the “growth of Coprobacillus” value [5] is given as “−” and the “growth of Holdemania” value [6] is given as “+”.
For `O=C[C@H](O)[C@@H](O)[C@H](O)CO` [Xylose], the “growth of Johnsonella” value [3] is listed as “−”, the “growth of Clostridium cocleatum” value [1] is listed as “−” and the “growth of Sporacetegenium” value [4] is listed as “+”. For the same molecule, the “growth of Oscillibacter” value [2] was “+”, the “growth of Coprobacillus” value [5] was “−” and the “growth of Holdemania” value [6] was “w”.
In the case of `OC[C@H]1O[C@@](CO)(O[C@H]2O[C@H](CO)[C@@H](O)[C@H](O)[C@H]2O)[C@@H](O)[C@@H]1O` [Sucrose], the “growth of Johnsonella” value [3] is given as “−”, the “growth of Clostridium cocleatum” value [1] is given as “+” and the “growth of Sporacetegenium” value [4] is given as “w”. For the same molecule, the “growth of Oscillibacter” value [2] was “−”, the “growth of Coprobacillus” value [5] was “+” and the “growth and metabolic activity of genera” value [7] was “stimulate growth and metabolic activity of two or more genera”. The “growth of Holdemania” value [6] was “+”.
In the case of `OC[C@H]1O[C@H](O[C@H]2[C@H](O)[C@@H](O)[C@H](O)O[C@@H]2CO)[C@H](O)[C@@H](O)[C@@H]1O` [Maltose], the “growth of Johnsonella” value [3] is listed as “−”, the “growth of Clostridium cocleatum” value [1] is listed as “+” and the “growth of Sporacetegenium” value [4] is listed as “+”. For the same molecule, the “growth of Oscillibacter” value [2] was “−”, the “growth of Coprobacillus” value [5] was “+” and the “growth and metabolic activity of genera” value [7] was “stimulate growth and metabolic activity of two or more genera”. The “growth of Holdemania” value [6] was “+”.
For `O=C[C@@H](O)[C@H](O)[C@H](O)CO` [D-arabinose], the “growth of Oscillibacter” value [2] is given as “−”.
